From US20260226402A1, “IMPROVED MICROBIAL GROWTH MEDIA” (Becton, Dickinson and Company, priority 2023, published 2026)

Experiments:
[1] = test system: yeast and other microorganisms
Description: (§1) TTD testing was performed using 28 organisms with a target CFU of 10-100 in blood volumes of 0 or 0.5 mL, organism dependent, 3 mL, and 10 mL. The organisms tested are illustrated in FIG. 20. Four different concentrations of iron provided as ferric ammonium citrate (0 g/L, 0.01 g/L, 0.035 g/L, and 0.06 g/L) in the media otherwise as described in Example 1, and three different concentrations of oxygen (47%, 54%, and 60%) were tested. FIG. 21 illustrates the combination of conditions tested. The testing was run in replicates of three. Prior to the day of testing, the bottles were racked and labeled, and the organisms were sub-cultured accordingly. Each organism to be tested was grown overnight on an appropriate plated medium. Each organism was carefully checked for purity. […] The organism is then re-cultured. 0.1 mL of the final organism dilution was dispensed and spread on the appropriate agar for plate counts. Using aseptic technique, each bottle containing 30 ml of microbial growth media was amended with 0, 0.5, 3, or 10 mL of bagged human blood using the appropriate syringe and needle. Paired sets were inoculated with blood from the same donor unit at the same time. The bottles were then inoculated with 0.1 mL of the appropriate organism. After inoculation, the bottles were loaded onto a BACTEC FX instrument using a standard protocol length of 120 hours. Paired bottles were entered into the FX at the same time in adjacent positions. […] The data from each experiment was organized for statistical testing via a general linear model analysis of variance (ANOVA). Blood volumes of 0 or 0.5, 3, and 10 mL were recoded as 0, 3, and 10 mL to help balance the design. Additional models were assessed holding the blood volume constant. FIG. 56 illustrates the results of the ANOVA analyzing the effects of the tested conditions on TTD. FIG. 57 illustrates the results of the ANOVA parameter estimates and prediction equation. There was an expectation that only the yeast category would show a significant effect with the iron addition. Other categories were monitored to ensure no adverse effects.

Candida albicans = experiment: TTD testing with varied iron and O2 (Example 2); assay type: cell-based
Description: as §1

Candida glabrata = experiment: TTD testing with varied iron and O2 (Example 2); assay type: cell-based
Description: as §1

[2] = iron 0, 0.01, 0.035, 0.06 g/L tested

## O=O [oxygen]
[1]
  optimal gaseous headspace O2 concentration for TTD: about 54%
[1]; from 47% to 60% O2
  effect on TTD of increasing oxygen concentration in headspace gas: decreased the TTD
Candida albicans; 47%, 54%, 60% O2 tested
  optimal gaseous headspace O2 concentration for TTD: about 54%
Candida albicans; from 47% to 60% O2
  effect on TTD of increasing oxygen concentration in headspace gas: decreased the TTD
Candida glabrata; 47%, 54%, 60% O2 tested
  optimal gaseous headspace O2 concentration for TTD: about 54%
Candida glabrata; from 47% to 60% O2
  effect on TTD of increasing oxygen concentration in headspace gas: decreased the TTD

## ferric ammonium citrate [iron]
[1]; [2]
  optimal iron concentration for TTD: about 0.035 g/L
[1]; iron from 0 to 0.06 g/L, blood 0/0.5, 3, 10 mL
  effect on TTD of increasing iron concentration in the media: decreased the TTD
[1]; yeast category, general linear model ANOVA
  effect of iron on TTD, ANOVA result: lowers the TTD of yeasts
Candida albicans; [2]
  optimal iron concentration for TTD: about 0.035 g/L
Candida albicans; iron from 0 to 0.06 g/L
  effect on TTD of increasing iron concentration in the media: decreased the TTD
Candida glabrata; [2]
  optimal iron concentration for TTD: about 0.035 g/L
Candida glabrata; iron from 0 to 0.06 g/L
  effect on TTD of increasing iron concentration in the media: decreased the TTD
